Tests used:
[1] = system: spontaneous marble-burying behaviour of mice; assay: Marble-burying test in mice; assay type: in vivo; settings: male NMRI mice, 30 minutes' free exploration, s.c.
From the text: This test enables evaluation of the capacity of pharmacological agents to inhibit the spontaneous marble-burying behaviour of mice, the inhibition being predictive of antidepressant and/or anti-impulsive action. Male mice of the NMRI strain (Iffa-Credo, l'Arbresle, France) weighing from 20 to 25 g on the day of the experiment are placed individually in Macrolon® boxes (30×18×19 cm) containing 5 cm of sawdust and covered with a perforated plexiglass plate. Twenty-four “tiger's eye” glass marbles are evenly distributed on the sawdust at the periphery of the box. At the end of 30 minutes' free exploration, the animals are removed from the box and the number of buried marbles is counted.

[2] = system: level of serotonin, noradrenalin and dopamine in cingulate frontal cortex; assay: Microdialysis experiment in the rat; assay type: in vivo; settings: rat frontal cortex dialysate, 10 mg/kg subcutaneously
Experimental: Rats are anaesthetised with pentobarbital (60 mg/kg i.p.). They are placed in a Kopf stereotactic device and the cannula guide is implanted in the cingulate frontal cortex in accordance with the coordinates described in the Paxinos and Watson atlas (1982) as follows: AP=+2.2; L=±0.6; DV=−0.2. The rats are placed in separate cages and are not used in dialysis until 5 days later. […] The probe is perfused at a flow rate of 1 μl/mn with a solution of 147.2 mM NaCl, 4 mM KCl and 2.3 mM CaCl2 adjusted to pH 7.3 with a phosphate buffer (0.1 M). Two hours after implantation, samples are collected every 20 minutes for 4 hours. Three baseline samples are taken before administration of the products to be tested. The rats are left in their individual cages for the whole of the experiment. When the experiment is finished, the rats are decapitated and the brain is removed and frozen in isopentane. Sections of a thickness of 100 μm are cut and stained with cresyl violet, which allows verification of the location of the probes.
The simultaneous quantification of dopamine, norepinephrine and serotonin is carried out as follows: 20 μl dialysis samples are each diluted with 20 μl of mobile phase (NaH2PO4: 75 mM, EDTA: 20 μM, sodium 1-decanesulphonate: 1 mM, methanol: 17.5%, triethylamine: 0.01%, pH: 5.70) and 33 μl samples are analysed by HPLC using a reverse phase column thermostatically maintained at 45° C. and quantified by means of a coulometric detector. The potential of the first electrode of the detector is set at −90 mV (reduction) and that of the second at +280 mV (oxidation). The mobile phase is injected at a flow rate of 2 ml/mn using a pump. The sensitivity limits for dopamine, norepinephrine and serotonin are 0.55 fmol per sample. All the products of the invention are injected subcutaneously in a volume of 1.0 ml/kg. The products are dissolved in distilled water to which a few drops of lactic acid have been added if necessary.

Row | SMILES | Marble-burying in mice, ID50 (inhibitory dose50) [1] [mg/kg s.c.] | increase of the level of dopamine (maximum % of the effect compared with the baseline level defined as 0%) [2] [%] | increase of the level of noradrenalin (maximum % of the effect compared with the baseline level defined as 0%) [2] [%] | increase of the level of serotonin (maximum % of the effect compared with the baseline level defined as 0%) [2] [%]
1 | CNCCC(Oc1ccc(C(F)(F)F)cc1)c1ccccc1 (centres unmarked) [Fluoxetine, fluoxetine, reference compound] | 8.03 |  |  | 
2 | CN(C)CC1(C2(O)CCCCC2)Cc2cc3occc3cc21 (centres unmarked) [Example 5, 1-{5-[(Dimethylamino)methyl]-5,6-dihydrocyclobuta[f][1]benzofuran-5-yl}cyclohexanol] | 0.6 | 400±50 | 500±13 | 250±15

From patent US6420413B2, “Heterocycloalkylbenzocyclobutane and heteroarylbenzocyclobutane compounds” (Les Laboratories Servier, priority 2000, dated 2002)
